Test results published in patent US20160151370A1, “Substituted Benzylpyrazoles” (BAYER PHARMA AKTIENGESELLSCHAFT, priority 2013, published 2016).

Columns and labels:
[1] = target: T1, catalytic domain of human Bub1 (amino acids 704-1085) (Homo sapiens, UniProt O43683); assay: Bub1 kinase assay (TR-FRET); assay type: biochemical; settings: 10 μM ATP, 1 μM peptide substrate, median value, read-out: Biological Assay 1: Bub1 kinase assay median IC50
T1 construct: catalytic domain of human Bub1 (amino acids 704-1085); His6 (N); made in house; host or cells: Hi5 insect cells
T1 sequence (O43683 704-1085): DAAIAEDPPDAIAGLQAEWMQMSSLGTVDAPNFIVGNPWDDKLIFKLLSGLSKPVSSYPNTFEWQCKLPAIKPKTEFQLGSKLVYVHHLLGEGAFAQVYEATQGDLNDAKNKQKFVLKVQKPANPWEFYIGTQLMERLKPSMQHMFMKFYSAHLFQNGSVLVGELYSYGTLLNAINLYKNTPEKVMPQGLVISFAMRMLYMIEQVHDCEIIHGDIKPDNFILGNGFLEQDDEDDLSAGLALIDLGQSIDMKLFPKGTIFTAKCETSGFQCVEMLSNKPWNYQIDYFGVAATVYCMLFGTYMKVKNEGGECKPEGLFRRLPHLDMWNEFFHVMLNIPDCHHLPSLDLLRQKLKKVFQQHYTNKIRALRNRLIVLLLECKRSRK
Excerpt: Bub1-inhibitory activities of compounds described in the present invention were quantified using a time-resolved fluorescence energy transfer (TR-FRET) kinase assay which measures phosphorylation of the synthetic peptide Biotin-Ahx-[…] (C-terminus in amide form), purchased from e.g. Biosyntan (Berlin, Germany) by the (recombinant) catalytic domain of human Bub1 (amino acids 704-1085), expressed in Hi5 insect cells with an N-terminal His6-tag and purified by affinity-(Ni-NTA) and size exclusion chromatography.
In a typical assay 11 different concentrations of each compound (0.1 nM, 0.33 nM, 1.1 nM, 3.8 nM, 13 nM, 44 nM, 0.15 μM, 0.51 μM, 1.7 μM, 5.9 μM and 20 μM) were tested in duplicate within the same microtiter plate. To this end, 100-fold concentrated compound solutions (in DMSO) were previously prepared by serial dilution (1:3.4) of 2 mM stocks in a clear low volume 384-well source microtiter plate (Greiner Bio-One, Frickenhausen, Germany), from which 50 nL of compounds were transferred into a black low volume test microtiter plate from the same supplier. Subsequently, 2 μL of Bub1 (the final concentration of Bub1 was adjusted depending on the activity of the enzyme lot in order to be within the linear dynamic range of the assay: typically ˜200 ng/mL were used) in aqueous assay buffer [50 mM Tris/HCl pH 7.5, 10 mM magnesium chloride (MgCl2), 200 mM potassium chloride (KCl), 1.0 mM dithiothreitol (DTT), 0.1 mM sodium ortho-vanadate, 1% (v/v) glycerol, 0.01% (w/v) bovine serum albumine (BSA), 0.005% (v/v) Trition X-100 (Sigma), 1× Complete EDTA-free protease inhibitor mixture (Roche)] were added to the compounds in the test plate and the mixture was incubated for 15 min at 22° C. to allow pre-equilibration of the putative enzyme-inhibitor complexes before the start of the kinase reaction, which was initiated by the addition of 3 μL 1.67-fold concentrated solution (in assay buffer) of adenosine-tri-phosphate (ATP, 10 μM final concentration) and peptide substrate (1 μM final concentration). […] Subsequently, the amount of product was evaluated by measurement of the resonance energy transfer from the Eu-chelate-antibody complex recognizing the Phosphoserine residue to the streptavidin-XL665 bound to the biotin moiety of the peptide. To this end, the fluorescence emissions at 620 nm and 665 nm after excitation at 330-350 nm were measured in a TR-FRET plate reader, e.g. a Rubystar or Pherastar (both from BMG Labtechnologies, Offenburg, Germany) or a Viewlux (Perkin-Elmer) and the ratio of the emissions (665 nm/622 nm) was taken as indicator for the amount of phosphorylated substrate. […] IC50 values were calculated by fitting the normalized inhibition data to a 4-parameter logistic equation (Minimum, Maximum, IC50, Hill; Y=Max+(Min−Max)/(1+(X/IC50)Hill)).

[2] = test system: HeLa human cervical cancer cell line; assay: Proliferation assay (crystal violet staining); assay type: cell-based; settings: 96 h, 4 days incubation, median value, read-out: Biological Assay 2: Proliferation assay (HeLa cell line) median IC50
Protocol: Cultivated tumor cells (cells were ordered from ATCC) were plated at a density of 3000 cells/well in a 96-well multititer plate in 200 μL of growth medium supplemented 10% fetal calf serum. After 24 hours, the cells of one plate (zero-point plate) were stained with crystal violet (see below), while the medium of the other plates was replaced by fresh culture medium (200 μL), to which the test substances were added in various concentrations (0 μM, as well as in the range of 0.001-10 μM; the final concentration of the solvent dimethyl sulfoxide was 0.5%). The cells were incubated for 4 days in the presence of test substances. Cell proliferation was determined by staining the cells with crystal violet: the cells were fixed by adding 20 μL/measuring point of an 11% glutaric aldehyde solution for 15 minutes at room temperature. After three washing cycles of the fixed cells with water, the plates were dried at room temperature. The cells were stained by adding 100 μL/measuring point of a 0.1% crystal violet solution (pH 3.0). […] Absorbtion was determined by photometry at a wavelength of 595 nm. The change of cell number, in percent, was calculated by normalization of the measured values to the absorbtion values of the zero-point plate (=0%) and the absorbtion of the untreated (0 μm) cells (=100%). The IC50 values were determined by means of a 4 parameter fit.

IC50 [1] [nM]	IC50 [2] [µM]	SMILES
8.4	8.2	CCOc1cc(F)c(Cn2nc(-c3ncc(OCCCS(C)(=N)=O)c(Nc4ccncc4)n3)c(C)c2C2CC2)c(F)c1 (racemic) [Example 2-2-1, 2-[5-cyclopropyl-1-(4-ethoxy-2,6-difluorobenzyl)-4-methyl-1H-pyrazol-3-yl]-5-[3-(S-methylsulfonimidoyl)propoxy]-N-(pyridin-4-yl)pyrimidin-4-amine]
5.7	–	CCOc1cc(F)c(Cn2nc(-c3ncc(OCCCS(C)(=N)=O)c(Nc4ccncc4)n3)c(C)c2C2CC2)c(F)c1 (single isomer, unassigned; (+)) [Example 2-2-3, (+)-2-[5-cyclopropyl-1-(4-ethoxy-2,6-difluorobenzyl)-4-methyl-1H-pyrazol-3-yl]-5-[3-(S-methylsulfonimidoyl)propoxy]-N-(pyridin-4-yl)pyrimidin-4-amine]
9.5	–	CCOc1cc(F)c(Cn2nc(-c3ncc(OCCCS(C)(=N)=O)c(Nc4ccncc4)n3)c(C)c2C2CC2)c(F)c1 (single isomer, unassigned; (-)) [Example 2-2-2, (−)-2-[5-cyclopropyl-1-(4-ethoxy-2,6-difluorobenzyl)-4-methyl-1H-pyrazol-3-yl]-5-[3-(S-methylsulfonimidoyl)propoxy]-N-(pyridin-4-yl)pyrimidin-4-amine]
11	–	CCOc1cc(F)c(Cn2nc(-c3ncc(OCCCS(C)(=O)=NC(=O)C(F)(F)F)c(Nc4ccncc4)n3)c(C)c2C2CC2)c(F)c1 (centres unmarked) [Example 2-1-1, N-{[3-({2-[5-cyclopropyl-1-(4-ethoxy-2,6-difluorobenzyl)-4-methyl-1H-pyrazol-3-yl]-4-(pyridin-4-ylamino)pyrimidin-5-yl}oxy)propyl](methyl)oxido-λ^6-sulfanylidene}-2,2,2-trifluoroacetamide]
